# Data from ChEMBL document CHEMBL1137749, “Antifungal unsaturated cyclic Mannich ketones and amino alcohols: study of mechanism of action” (2009).
# Calls of active or inactive are those of the source. The calls are words filed in the database; no cut-off is given here.
# What was measured:
# Candida albicans [1] = experiment: Antifungal activity against Candida albicans ATCC 90028 after 48 hrs by macro tube dilution method; type: functional; conditions: ATCC 90028, 48 h
# Nakaseomyces glabratus = experiment: Antifungal activity against Candida glabrata ATCC 3916 after 48 hrs by macro tube dilution method; type: functional; conditions: ATCC 3916, 48 h
# Pichia kudriavzevii = experiment: Antifungal activity against Candida krusei ATCC 30068 after 48 hrs by macro tube dilution method; type: functional; conditions: ATCC 30068, 48 h
# Candida parapsilosis = experiment: Antifungal activity against Candida parapsilosis ATCC 22019 after 48 hrs by macro tube dilution method; type: functional; conditions: Lodderomyces parapsilosis, ATCC 22019, 48 h
# Saccharomyces cerevisiae = experiment: Antifungal activity against Saccharomyces cerevisiae after 48 hrs by macro tube dilution method; type: functional
# Aspergillus sp. = experiment: Antifungal activity against Aspergillus sp. after 48 hrs by macro tube dilution method; type: functional
# Candida albicans [2] = experiment: Antifungal activity against Candida albicans ATCC 90028 assessed as changes in fungal protein expression at 0.5 time MIC after 1 hr by electrophoresis-based microchip technology; type: functional, organism-based
# Candida albicans [3] = experiment: Antifungal activity against Candida albicans ATCC 90028 assessed as changes in fungal protein expression at 2 times MIC after 1 hr by electrophoresis-based microchip technology; type: functional, organism-based
# Candida albicans [4] = experiment: Inhibition of chitin synthase in Candida albicans ATCC 90028 at 1.5 times MIC by liquid scintillation analyzer relative to nikkomycin
# Candida albicans [5] = experiment: Antifungal activity against Candida albicans ATCC 90028 assessed as inhibition of fungal ergosterol synthesis at 0.5 times MIC after 16 hrs by UV spectrophotometry; type: functional, organism-based
# Rattus norvegicus = organism: Rattus norvegicus; experiment: Inhibition of lactate dehydrogenase in Wistar rat kidney at 1.5 times MIC relative to control
# Candida albicans [6] = experiment: Antifungal activity against Candida albicans ATCC 90028 assessed as increase in 104 kDa fungal protein at 0.5 time MIC after 1 hr by electrophoresis-based microchip technology; type: functional, organism-based
# Candida albicans [7] = experiment: Antifungal activity against Candida albicans ATCC 90028 assessed as increase in 104 kDa fungal protein at 2 times MIC after 1 hr by electrophoresis-based microchip technology; type: functional, organism-based
# Candida albicans [8] = experiment: Antifungal activity against Candida albicans ATCC 90028 assessed as increase in 117 kDa fungal protein at 0.5 time MIC after 1 hr by electrophoresis-based microchip technology; type: functional, organism-based
# Candida albicans [9] = experiment: Antifungal activity against Candida albicans ATCC 90028 assessed as increase in 117 kDa fungal protein at 2 times MIC after 1 hr by electrophoresis-based microchip technology; type: functional, organism-based
# Candida albicans [10] = experiment: Antifungal activity against Candida albicans ATCC 90028 assessed as increase in 124 kDa fungal protein at 0.5 time MIC after 1 hr by electrophoresis-based microchip technology; type: functional, organism-based
# Candida albicans [11] = experiment: Antifungal activity against Candida albicans ATCC 90028 assessed as increase in 124 kDa fungal protein at 2 times MIC after 1 hr by electrophoresis-based microchip technology; type: functional, organism-based
# Candida albicans [12] = experiment: Antifungal activity against Candida albicans ATCC 90028 assessed as increase in 147 kDa fungal protein at 0.5 time MIC after 1 hr by electrophoresis-based microchip technology; type: functional, organism-based
# Candida albicans [13] = experiment: Antifungal activity against Candida albicans ATCC 90028 assessed as increase in 147 kDa fungal protein at 2 times MIC after 1 hr by electrophoresis-based microchip technology; type: functional, organism-based
MIC (Candida albicans [1]) [µg/mL],MIC (Nakaseomyces glabratus) [µg/mL],MIC (Pichia kudriavzevii) [µg/mL],MIC (Candida parapsilosis) [µg/mL],MIC (Saccharomyces cerevisiae) [µg/mL],MIC (Aspergillus sp.) [µg/mL],Activity (Candida albicans [4]),inhibition (Candida albicans [4]),inhibition (Rattus norvegicus),Structure (SMILES),Activity (Candida albicans [2]),Activity (Candida albicans [3]),Activity (Candida albicans [5]),Activity (Candida albicans [6]),Activity (Candida albicans [7]),Activity (Candida albicans [8]),Activity (Candida albicans [9]),Activity (Candida albicans [10]),Activity (Candida albicans [11]),Activity (Candida albicans [12]),Activity (Candida albicans [13])
6.25,12.5,6.25,6.25,3.12,50,,,,O=C1/C(=C/c2ccccc2)CCC1CN1CCCC1 (centres undefined),inactive,inactive,,,,,,,,,
25,> 200,25,12.5,3.12,> 200,,,,O=C1/C(=C/c2ccccc2)CCCC1CN1CCOCC1 (centres undefined),,,,,,,,,,,
3.12,6.25,12.5,6.25,1.56,200,,,,COc1ccc(/C=C2\CCC(CN3CCOCC3)C2=O)cc1 (centres undefined),inactive,inactive,,,,,,,,,
25,100,50,50,25,> 200,,,,COc1ccc(/C=C2\CCCC(CN3CCOCC3)C2=O)cc1OC (centres undefined),,,,,,,,,,,
25,25,25,12.5,12.5,100,,,,O=C1/C(=C/c2ccccc2)CCCC1CN1CCCC1 (centres undefined),,,,,,,,,,,
12.5,100,100,25,12.5,100,,,,CC1CCN(CC2CCC/C(=C\c3ccccc3)C2=O)CC1 (centres undefined),,,,,,,,,,,
> 200,> 200,> 200,> 200,100,> 200,,,,CC1CCN(C[C@H]2CCC/C(=C\c3ccccc3)[C@@H]2O)CC1 (relative stereo),,,,,,,,,,,
100,> 200,100,> 200,100,200,,,,COc1ccc(/C=C2\CC[C@@H](CN3CCCCC3)[C@@H]2O)cc1 (relative stereo),,,,Active,inactive,Active,Active,Active,Active,inactive,inactive

# Continued, molecule first:
Structure (SMILES),MIC (Candida albicans [1]) [µg/mL],MIC (Nakaseomyces glabratus) [µg/mL],MIC (Pichia kudriavzevii) [µg/mL],MIC (Candida parapsilosis) [µg/mL],MIC (Saccharomyces cerevisiae) [µg/mL],MIC (Aspergillus sp.) [µg/mL],Activity (Candida albicans [4]),inhibition (Candida albicans [4]),inhibition (Rattus norvegicus),Activity (Candida albicans [2]),Activity (Candida albicans [3]),Activity (Candida albicans [5]),Activity (Candida albicans [6]),Activity (Candida albicans [7]),Activity (Candida albicans [8]),Activity (Candida albicans [9]),Activity (Candida albicans [10]),Activity (Candida albicans [11]),Activity (Candida albicans [12]),Activity (Candida albicans [13])
O[C@H]1/C(=C/c2ccccc2)CCCC[C@H]1CN1CCOCC1 (relative stereo),> 200,> 200,> 200,> 200,> 200,> 200,,,,,,,,,,,,,,
O[C@H]1/C(=C/c2ccccc2)CCCCC[C@H]1CN1CCCCC1 (relative stereo),100,50,6.25,50,6.25,50,inactive,,,,,,,,,,,,,
COc1ccc(/C=C2\CCCC(CN3CCOCC3)C2=O)cc1 (centres undefined),25,> 200,25,12.5,12.5,> 200,,,,,,,,,,,,,,
O=C1/C(=C/c2ccccc2)CCC1CN1CCNCC1 (centres undefined),6.25,12.5,12.5,6.25,1.56,100,,inactive,,inactive,inactive,,,,,,,,,
O=C1/C(=C/c2ccccc2)CCCCC1CN1CCOCC1 (centres undefined),25,> 200,100,100,50,200,,24%,inactive,,,inactive,,,,,,,,
O[C@H]1/C(=C/c2ccccc2)CCCCC[C@H]1CN1CCOCC1 (relative stereo),200,200,200,200,100,> 200,Active,,,,,,,,,,,,,
O=C1/C(=C/c2ccc3c(c2)OCO3)CCC1CN1CCOCC1 (centres undefined),1.56,3.12,6.25,6.25,3.12,> 200,,,,,,inactive,,,,,,,,
COc1ccccc1/C=C1\CCC(CN2CCCCC2)C1=O (centres undefined),6.25,12.5,12.5,12.5,6.25,100,,,,inactive,inactive,,,,,,,,,
